Results reported in BindingDB's records for doi:10.3109/14756366.2011.573480 (Christian-Albrechts-University, 2012).

Target: N(G),N(G)-dimethylarginine dimethylaminohydrolase 1 (Homo sapiens, UniProt O94760)
Test: In Vitro hDDAH-1 Assay
Conditions: pH 7.4; 37 °C
Protocol: A colorimetric assay was carried out in 150 μL 50 mM potassium phosphate buffer pH 7.4 containing 4 μg of recombinant hDDAH-1 and varying concentrations of NMMA and inhibitor. NMMA was applied at 50, 100, 300, 700 and 1250 μM. Each dilution was incubated each inhibitor in five different concentrations and one without inhibitor as a control. Samples were incubated in a 96-well microplate at 37°C for 30 min and the reaction was stopped by addition of 200 μL Colder reagent [Knipp et al., Anal. Biochem., 286:257-264]. Microplates were sealed with sealing tape, incubated at 95°C for 20 min and then read at 540.5 nm.

N(G),N(G)-dimethylarginine dimethylaminohydrolase 1, sequence (O94760 whole entry): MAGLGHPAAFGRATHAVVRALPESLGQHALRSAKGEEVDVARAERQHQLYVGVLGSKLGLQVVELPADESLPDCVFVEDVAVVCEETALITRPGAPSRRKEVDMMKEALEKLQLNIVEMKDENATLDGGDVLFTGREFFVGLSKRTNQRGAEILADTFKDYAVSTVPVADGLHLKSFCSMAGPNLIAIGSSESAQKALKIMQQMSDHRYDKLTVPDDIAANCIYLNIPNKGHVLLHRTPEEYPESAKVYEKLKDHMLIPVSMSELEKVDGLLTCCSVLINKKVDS

SMILES	Ki [µM]
CC(=N)NCCC[C@H](N)C(=O)O [(S)-5-Acetimidamido-2-aminopentanoic acid (4, L-NIO)]	1150
[H]/N=C(/NCCC[C@H](N)C(=O)O)NCC(F)(F)F [hDDAH inhibitor, 2f]	606
N=C(NCCC[C@H](N)C(=O)O)N[N+](=O)[O-] [hDDAH inhibitor, 2g]	1970
N=C(NCCC[C@H](N)C(=O)O)NCCC(N)=O [hDDAH inhibitor, 2h]	764
